Results on 5 compounds are retold here after patent US20050260630A1, “Rapid methods for detecting methylation of a nucleic acid molecule” (Michigan State University, priority 2004, published 2005).

One assay deals with H4IIE rat hepatoma cells. The assay is described as follows: Global DNA methylation by SssI methylase assay in treated H4IIE cells. The note with it: 72 hour incubation.
Assay [1] is described as follows: Systolic blood pressure of DOCA-treated uninephrectomized rats. Type of assay: in vivo, rat. Particulars: male Sprague-Dawley rats, uninephrectomy, pellet 200 mg/kg, water with 1.0% NaCl and 0.2% KCl; at 28 days (control 112 mmHg). The protocol: Hypertensive rats were created by subjecting male Sprague-Dawley rats, weighing […] uninephrectomy and implanting them with a deoxycorticosterone acetate (DOCA) pellet (200 mg/kg). […] Aortas were removed 28 days after implantation of the DOCA pellet.

The subject of assay [2] is genomic DNA from liver cells (GC-rich regions, 5′CCGG 3′ sites). The assay is described as follows: Arbitrarily primed PCR and capillary electrophoresis methylation analysis of liver DNA of phenobarbital-treated C57BL/6 mice (RsaI/HpaII digest). Particulars: 0.05% (w/v) in drinking water for 2 weeks.
Assay [3] has as its system GC-rich regions of liver genomic DNA. Description: GC-rich region methylation following phenobarbital treatment of B6C3F1 mice (AP-PCR and capillary electrophoresis, RsaI/HpaII and RsaI/MspI digests). Type of assay: in vivo. Particulars: B6C3F1 mouse liver.
The mark [4] stands for this setting: H4IIE cells treated with cytolethal concentrations.
[5] abbreviates: H4IIE cells treated with non-cytolethal concentrations.
The mark [6] stands for this setting: HpaII digest, 0.05% (w/v) in drinking water, 2 weeks.
[7] abbreviates: MspI digest, 0.05% (w/v) in drinking water, 2 weeks.
Where [8] appears, read: Total of HpaII and MspI digests, 0.05%.

In the case of `O=c1[nH]cc(F)c(=O)[nH]1` [5-FU, 5-fluorouracil], the “global DNA methylation status” value in the assay on H4IIE rat hepatoma cells (setting [4]) is “decrease in global DNA methylation status”.
As to `CC(=O)OCC(=O)[C@H]1CC[C@H]2[C@@H]3CCC4=CC(=O)CC[C@]4(C)[C@H]3CC[C@]12C` [DOCA, deoxycorticosterone acetate], the systolic blood pressure in assay [1] amounted to 180 mmHg.
On to `Nc1ncn([C@H]2C[C@H](O)[C@@H](CO)O2)c(=O)n1` [dAzaC, 5-aza-2′deoxycytidine], for which, in the assay on H4IIE rat hepatoma cells (setting [5]), the “global DNA methylation status” value is “decrease in global DNA methylation status”.
For `CCC1(c2ccccc2)C(=O)NC(=O)NC1=O` [phenobarbital], in assay [2] (C57BL/6 mice), the “sites in murine liver DNA where treatment has affected methylation status” value turned out to be 10 sites. The compound also displayed a Sites of Hypermethylation in assay [2] (liver DNA of male C57BL/6 mice, t-test α=0.05) of 8 sites. In addition, in assay [3] (setting [6]), the “Sites of Hypermethylation” value worked out at 10 sites, the “Sites of Hypomethylation” value worked out at 5 sites, the “Sites of “New” Methylation” value is listed as 11 sites and the TOTAL altered sites was found to be 26 sites. Besides, in assay [3] (setting [7]), the “Sites of Hypermethylation” value is 8 sites, the “Sites of Hypomethylation” value is reported as 8 sites, the “Sites of “New” Methylation” value is given as 11 sites and the TOTAL altered sites is reported as 27 sites. Moreover, in assay [3] (setting [8]), the “Sites of Hypermethylation” value is given as 18 sites, the “Sites of Hypomethylation” value turned out to be 13 sites, the “Sites of “New” Methylation” value came out at 22 sites and the TOTAL altered sites is listed as 53 sites.
Consider `CN[C@@H]1C[C@H]2O[C@@](C)([C@@H]1OC)n1c3ccccc3c3c4c(c5c6ccccc6n2c5c31)C(=O)NC4` [staurosporine, Staurosporine], for which the “global DNA methylation status” value in the assay with H4IIE rat hepatoma cells (setting [4]) and in the assay on H4IIE rat hepatoma cells (setting [5]) was “decrease in global DNA methylation status” throughout.
